How the values were obtained:
full length USP7 = full length USP7 (Homo sapiens (Human), UniProt Q93009); assay: Ub-AMC enzymatic assay with full-length USP7; type: biochemical; settings: full-length USP7, Ub-AMC
Method: Both constructs were overexpressed in E. coli BL21 (DE3). Cells were grown at 37° C. to an OD of 0.9, cooled to 16° C., induced with 500 μM isopropyl-1-thio-D-galactopyranoside (IPTG), incubated overnight at 16° C., collected by centrifugation, and stored at −80° C. Cell pellets were sonicated in lysis buffer (25 mM Tris pH 8, 1 M NaCl, and 10 mM BME) supplemented with 10 μg/ml phenylmethanesulfonylfluoride (PMSF) and the resulting lysate was centrifuged at 30,000×g for 40 min. Ni-NTA beads (Qiagen) were mixed with lysate supernatant for 2 hours, and washed with lysis buffer supplemented with 25 mM imidazole. The bound protein was eluted with lysis buffer supplemented with 300 mM imidazole. The sample was then concentrated to 1 ml (30 kDa concentrator; Amicon Ultra, Millipore), and run on a Superdex 200 (GE healthcare) in buffer containing 25 mM HEPES pH 7.5, 200 mM NaCl, and 1 mM DTT. Fractions were pooled, concentrated and frozen at −80° C.
(§1) Full length USP7 was tested for its activity in Ubiquitin-AMC assay in presence or absence of inhibitors. USP7 (5 nM) was pre-incubated for 6 hours at room temperature with different concentrations of inhibitors or DMSO as a control in 50 mM HEPES pH 7.5, 0.5 mM EDTA, 11 μM ovalbumin, and 5 mM DTT. Ubiquitin-AMC (Boston Biochem) was then added to a final concentration of 500 nM. The initial rate of the reaction was measured by collecting fluorescence data at one minute intervals over 30-minute period using a Clariostar fluorescence plate reader at excitation and emission wavelength of 345 and 445 nm respectively. The calculated initial rate values were plotted against inhibitor concentrations to determine IC50s. All the experimental data were plotted using Prism GraphPad. All assays for each compound were performed at least twice for each compound.

USP7 = USP7 (Homo sapiens (Human), UniProt Q93009); assay: Live cell treatment and competitive ABPP with HA-Ub-VS; type: cell-based; settings: live cell treatment, 6 hr; read-out: IC50 of USP7 inhibition in cyto
Method: HA-Ub-VS experiments were performed as previously described in Lamberto, I. et al. Structure-Guided Development of a Potent and […] Selective Non-covalent Active-Site Inhibitor of USP7. Cell Chem. Biol. 24, 1490-1500 (2017). Briefly, target engagement lysis buffer (50 mM Tris pH 8.0, 150 mM NaCl, 5 mM MgCl2, 0.5 mM EDTA, 0.5% NP-40, 10% glycerol, 1 mM TCEP, protease and phosphatase inhibitors) was added to cell pellets on ice. Lysate was cleared by centrifugation and diluted to 1.67 mg/mL. Where indicated, 30 μL lysate was then incubated with inhibitors or DMSO for the indicated timepoints. 1 μM HA-Ub-VS was then added to the lysate and incubated at RT for the indicated time points. Labeling reactions were quenched with 4×LDS sample buffer (Thermo Fisher B0007) supplemented with 10% BME, vortexed vigorously, and heated to 95° C. for 5 minutes. Samples were resolved by SDS-PAGE and analyzed by Western blot with the indicated antibodies.

[1] = system: p53 target genes in MCF7 cells; assay: Quantitative real-time PCR of MCF7 cells; type: cell-based; settings: 1 μM, 6 or 24 hours
Method: After cell treatment under the indicated conditions, total cellular RNA was purified using a Qiagen RNEasy kit. 1 μg of RNA was then converted to cDNA using SuperScript III First-Strand Synthesis (Invitrogen). cDNA from each sample was then combined with the indicated TaqMan probe and 2× MasterMix in a 96-well Fast RT-PCR plate (Invitrogen). qPCR was performed on an Invitrogen 7500 Fast qPCR instrument and gene expression was calculated using the 2^−ΔΔct method on Graphpad Prism.

MCF7 cells = assay: Cell cycle analysis by propidium iodide staining; type: cell-based; settings: 1 μM, 24 hours
Method: For propidium iodide (PI) staining, treated cells (˜1 million per condition) were washed with cold PBS, then fixed in 80% ethanol overnight at −20° C. After fixing, cells were pelleted, washed with PBS, and reconstituted in 500 μL FxCycle PI/RNAse A staining solution (Thermo Fisher). Cells were stored overnight at 4° C. and analyzed using a BD Fortessa flow cytometer.

USP7-F291N = USP7-F291N (Homo sapiens (Human), UniProt Q93009, F291N); assay: Ub-AMC assay with mutant USP7-F291N; type: biochemical; settings: 6-hr pre-incubation
Method: as §1

USP7-Q351S = USP7-Q351S (Homo sapiens (Human), UniProt Q93009, Q351S); assay: Ub-AMC assay with mutant USP7-Q351S; type: biochemical; settings: 6-hr pre-incubation
Method: as §1

[2] = system: Ewing sarcoma cell lines, TP53 WT and mutant; assay: Cell proliferation (CellTiter-Glo), panel of Ewing sarcoma cell lines; type: cell-based; settings: WT and TP53-KO Ewing Sarcoma cells
Method: (§2) Cells were plated in 384-well culture-treated plates and allowed to settle overnight. After drug treatment and appropriate incubation time, cell viability was assessed using the CellTiter-Glo Luminescent Cell Viability Assay (Promega). Luminescence was read on a Fluostar Omega Reader (BMG Labtech).

A673 cells = assay: Cell proliferation (CellTiter-Glo), A673; type: cell-based; settings: TP53-mutant, 3 days
Method: as §2

TC71 cells = assay: Cell proliferation (CellTiter-Glo), TC71; type: cell-based; settings: TP53-mutant, 3 days
Method: as §2

[3] = system: TC32 cells expressing sgTP53; assay: Cell proliferation of TC32 cells with TP53 knockout; type: cell-based; settings: 3 days
Method: as §2
Lentivirus was produced by transfecting HEK-293T cells with the pLentiV2 vector (Addgene plasmid #52961) and the packaging plasmids pCMV8.9 and pCMV-VSVG according to the FuGENE 6 (Roche) protocol. For lentiviral transduction, Ewing sarcoma cells were incubated with 2 mL of virus and 8 μg/mL of polybrene (Sigma-Aldrich). Cells were selected in puromycin (Sigma-Aldrich) 48 hours after infection for single knockout experiments.
sgRNAs were designed using the Broad Institute's sgRNA designer tool. The following sequences were used as control or to target the respective genes: […]

Chain of full length USP7 (Q93009 whole entry): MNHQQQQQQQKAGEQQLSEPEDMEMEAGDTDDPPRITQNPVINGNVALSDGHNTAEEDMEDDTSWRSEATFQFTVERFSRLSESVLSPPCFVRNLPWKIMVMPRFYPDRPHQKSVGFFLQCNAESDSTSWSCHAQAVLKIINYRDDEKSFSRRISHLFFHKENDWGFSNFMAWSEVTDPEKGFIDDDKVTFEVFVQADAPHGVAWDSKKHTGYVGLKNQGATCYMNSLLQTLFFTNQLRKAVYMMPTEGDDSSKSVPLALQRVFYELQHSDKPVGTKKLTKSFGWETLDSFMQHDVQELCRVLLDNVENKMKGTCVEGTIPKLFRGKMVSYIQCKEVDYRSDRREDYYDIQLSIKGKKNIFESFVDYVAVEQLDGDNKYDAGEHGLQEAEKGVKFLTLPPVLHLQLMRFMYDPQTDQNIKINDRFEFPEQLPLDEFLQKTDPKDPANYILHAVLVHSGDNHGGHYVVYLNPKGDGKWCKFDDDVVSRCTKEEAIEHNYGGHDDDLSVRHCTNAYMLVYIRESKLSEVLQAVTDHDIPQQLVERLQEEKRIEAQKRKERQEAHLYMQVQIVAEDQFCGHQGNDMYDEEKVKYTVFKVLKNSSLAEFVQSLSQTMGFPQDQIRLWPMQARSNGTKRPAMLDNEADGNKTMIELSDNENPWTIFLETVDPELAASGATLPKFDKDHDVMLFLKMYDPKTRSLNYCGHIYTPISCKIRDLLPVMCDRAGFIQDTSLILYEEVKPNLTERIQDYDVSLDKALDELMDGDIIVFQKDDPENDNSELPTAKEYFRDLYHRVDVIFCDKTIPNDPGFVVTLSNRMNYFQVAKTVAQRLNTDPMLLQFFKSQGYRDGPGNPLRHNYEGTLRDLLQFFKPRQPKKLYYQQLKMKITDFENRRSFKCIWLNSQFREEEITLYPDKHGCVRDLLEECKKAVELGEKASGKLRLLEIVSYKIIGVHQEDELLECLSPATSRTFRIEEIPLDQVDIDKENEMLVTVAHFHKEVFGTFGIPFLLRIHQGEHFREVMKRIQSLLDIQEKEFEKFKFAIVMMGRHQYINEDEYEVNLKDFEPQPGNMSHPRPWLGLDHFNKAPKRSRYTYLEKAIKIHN
Chain of USP7 (Q93009 whole entry): as above
Chain of USP7-Q351S (Q93009 whole entry Q351S): as the sequence (Q93009 whole entry) above, with Q351S counted along it
Chain of USP7-F291N (Q93009 whole entry F291N): as the sequence (Q93009 whole entry) above, with F291N counted along it

Structure (SMILES): CN1CCN(CCC(=O)Nc2ccc3c(=O)n(CC4(O)CCN(C(=O)[C@@H](CCCNC(=O)c5ccc6c(Cl)c7c(nc6c5)CCCC7)Cc5ccccc5)CC4)cnc3c2)CC1 [compound 6, (S)—N-(4-benzyl-5-(4-hydroxy-4-((7-(3-(4-methylpiperazin-1-yl)propanamido)-4-oxoquinazolin-3(4H)-yl)methyl)piperidin-1-yl)-5-oxopentyl)-9-chloro-5,6,7,8-tetrahydroacridine-3-carboxamide]
- IC50 against USP7 (range in words) (full length USP7): subnanomolar range
- IC50 (USP7): 39 nM
- transcription of p53 target genes (CDKN1A, GADD45A, BAX, DDB2) [1]: stimulating transcription of p53 target genes
- cell cycle effect (MCF7 cells): complete G1 arrest
- loss in potency compared to wild-type enzyme (USP7-F291N): 100 fold
- loss in potency compared to wild-type enzyme (USP7-Q351S): 100 fold
- TP53 dependence of cell killing [2]: highly TP53-dependent cell killing
- growth inhibition (A673 cells): neither TP53-mutant A673 or TC71 was substantially inhibited
- growth inhibition (TC71 cells): neither TP53-mutant A673 or TC71 was substantially inhibited
- cytotoxic effect after TP53 knockout [3]: rescued by TP53 knockout

Source: patent US12503453B2, “USP7 inhibition” (Dana-Farber Cancer Institute, Inc., priority 2018, dated 2025)
